Results from patent US6410544B1, “Cholinergic agents in the treatment of presbyopia” (Allergan Sales, Inc., priority 1998, dated 2002).
Entries after “also recorded” stand apart in the source; their conditions may differ.

Tests used:
[1] = test system: eye of a presbyopic myope; experiment: Hartinger refractometry at distance and near after one topical drop, myopic presbyope; type: in vivo, human; settings: single measurements, time point printed '30 min, 3:45 pm'
[2] = test system: eye of a human adult with presbyopia; experiment: Eye drop formulation given to a human adult with presbyopia; type: in vivo; settings: 0.1% weight/volume in base solution pH 6.4, human adult with presbyopia
Description: In a specific example of this invention, a base solution can be formulated as follows: Sodium Chloride 0.3%; Edetate Disodium 0.1%; Boric Acid 1.0%; Benzaliconium Chloride 0.01% Sodium Hydroxide (adjust to pH 6.4) and Water. Pilocarpine, at a concentration of 0.1% weight/volume, is added to the base solution. The above formulation is administered to the eye of a human adult with presbyopia, shown by their discomfort when reading, or their inability to read fine print.

pupil size = experiment: Observation of pupil size in the refractometry study; type: in vivo, human; settings: after one topical drop, myopic and hyperopic presbyope
[3] = test system: eye of a presbyopic myope; experiment: Hartinger refractometry at distance and near after one topical drop, myopic presbyope; type: in vivo, human; settings: for Mean Refraction, Near OS: +1.50 sphere in the right eye for near fixation; for Mean Refraction, Near OD: +1.75 sphere in the left eye for near fixation
Description: (§1) This clinical study was designed to evaluate the effect of a low dose muscarinic agent such as Pilocarpine from 0.001% to less than 2% by weight values on the refractive status of the eye.
(§2) One drop of Pilocarpine 0.3% was administered topically to the eye of a presbyopic myope and hyperope, before and after Hartinger Refractometry at distance and near was performed by the same observer.
(§3) Refraction at distance and near was performed with the Hartinger Refractomer by the same observer prior to installation of Pilcarpine 0.3%. Three measurements were taken at distance and at near for each eye tested at each timepoint.
(§4) In the myopic presbyope, both eyes received Piolcarpine 0.3%. In the hyperopic presbyope, only the right eye received Pilocarpine 0.3%.
(§5) At approximately 30-50 and 60-90 minutes post installation of Pilocarpine, refraction measurements were repeated.

[4] = test system: eye of a presbyopic hyperope; experiment: Hartinger refractometry at distance and near after one topical drop, hyperopic presbyope; type: in vivo, human
Description: as §1, §2, §3, §4, §5

CC[C@@H]1C(=O)OC[C@@H]1Cc1cncn1C [Pilocarpine 0.3%, Pilocarpine]
Refraction, Distance OS [1]: −1.25 diopters | Refraction, Near OD [1]: −1.5 diopters | vision after administration of the eye drops [2]: Vision is improved | change in pupil size (pupil size): no notable change in pupil size; also recorded: no observable effect on pupil size | change in distance and near myopic correction ([3]; 30 and 60 minutes post dosing): small but definite decrease in the distance and near myopic correction which was greater at 60 than 30 minutes post dosing | Mean Refraction, Distance OD ([3]; 30 min post instillation): −1.06 diopters | Mean Refraction, Near OS ([3]; 30 min post instillation): −1.53 diopters | Mean Refraction, Near OD ([3]; 30 min post instillation): −1.8 diopters | Mean Refraction, Distance OD ([3]; 60 min post instillation): −1.05 diopters | Mean Refraction, Distance OS ([3]; 60 min post instillation): −1.25 diopters | Mean Refraction, Near OS ([3]; 60 min post instillation): −0.95 diopters | Mean Refraction, Near OD ([3]; 60 min post instillation): −1.5 diopters | Mean Refraction, Distance OD ([4]; 50 min post instillation): +1.15 diopters | Mean Refraction, Near OD ([4]; 50 min post instillation, +2.5 sphere in the left eye for near fixation): +0.17 diopters | Mean Refraction, Distance OD ([4]; 90 min post instillation): +0.42 diopters | Mean Refraction, Near OD ([4]; 90 min post instillation, +2.50 sphere in the left eye for near fixation): +0.38 diopters | change in distance and near hyperopic correction ([4]; 90 minutes post dosing): small but definite decrease in the distance and near hyperopic correction
